# Laboratory results published in patent US20250074901A1, “NOVEL HETEROARYL COMPOUNDS” (ICAGEN, LLC, priority 2021, published 2025).
# Target: T1, Kv7.2 (Homo sapiens, UniProt O43526)
# T1 construct: expressed in transfected cells
# Experiment: Activation of Kv7.2 (in vitro assay, concentration response curve)
# Assay type: cell-based
# Settings: for Emax: Kv7.2 activation max %; for EC50: activation of Kv7.2
# In short: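 Agonist activity was measured in vitro across a range of compound concentrations and plotted as a sigmoidal concentration–response curve. EC50 is the concentration giving 50% of that compound's own maximal response (Emax).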
SMILES,Emax [%],EC50 [nM]
"O=C(NCc1ccnc(OCC(F)F)c1)NC12CC(F)(C1)C2 [Example 217, 1-[[2-(2,2-difluoroethoxy)pyridin-4-yl]methyl]-3-(3-fluoro-1-bicyclo[1.1.1]pentanyl)urea]",43,310
"Cc1cccc(NC(=O)NCc2ccnc(OC(F)F)c2)n1 [Example 218, 1-[[2-(difluoromethoxy)pyridin-4-yl]methyl]-3-(6-methylpyridin-2-yl)urea]",54,1490
"O=C(NCc1ccnc(OC(F)F)c1F)N[C@H]1C[C@H](C(F)(F)F)C1 [Example 219, 1-[[2-(difluoromethoxy)-3-fluoropyridin-4-yl]methyl]-3-[(1r,3r)-3-(trifluoromethyl)cyclobutyl]urea]",48,380
"O=C(NCc1ccnc(OCC(F)CF)c1)Nc1cccc(Cl)c1 (centres unmarked) [Example 220, 1-(3-chlorophenyl)-3-[[2-(2,3-difluoropropoxy)pyridin-4-yl]methyl]urea]",48,460
"CC(Oc1cc(CNC(=O)N[C@H]2C[C@H](C(F)(F)F)C2)ccn1)C(F)(F)F (some centres unmarked) [Example 221, 1-[(1r,3r)-3-(trifluoromethyl)cyclobutyl]-3-[[2-(1,1,1-trifluoropropan-2-yloxy)pyridin-4-yl]methyl]urea]",78,70
"O=C(NCc1ccnc(OC(F)F)c1)NC1CCC2C(C1)C2(F)F (centres unmarked) [Example 222, 1-(7,7-difluoro-3-bicyclo[4.1.0]heptanyl)-3-[[2-(difluoromethoxy)pyridin-4-yl]methyl]urea]",76,180
"CC(Oc1cc(CNC(=O)NC23CC(F)(C2)C3)ccn1)C(F)(F)F (centres unmarked) [Example 223, 1-(3-fluoro-1-bicyclo[1.1.1]pentanyl)-3-[[2-(1,1,1-trifluoropropan-2-yloxy)pyridin-4-yl]methyl]urea]",66,210
"O=C(NCc1ccnc(OC2CC(F)(F)C2)c1)NC12CC(F)(C1)C2 [Example 224, 1-[[2-(3,3-difluorocyclobutyl)oxypyridin-4-yl]methyl]-3-(3-fluoro-1-bicyclo[1.1.1]pentanyl)urea]",40,540
"O=C(NCc1ccnc(OC(F)F)c1)NC1CCOC(C(F)(F)F)C1 (centres unmarked) [Example 226, 1-[[2-(difluoromethoxy)pyridin-4-yl]methyl]-3-[2-(trifluoromethyl)oxan-4-yl]urea]",40,2450
"O=C(NCc1ccnc(OC(F)F)c1)NCC1(F)CCCC1 [Example 227, 1-[[2-(difluoromethoxy)pyridin-4-yl]methyl]-3-[(1-fluorocyclopentyl)methyl]urea]",49,410
"O=C(NCc1ccnc(OC(F)F)c1)NC(C(F)(F)F)C(F)(F)F [Example 228, 1-[[2-(difluoromethoxy)pyridin-4-yl]methyl]-3-(1,1,1,3,3,3-hexafluoropropan-2-yl)urea]",58,260
"O=C(NCc1ccnc(OC(F)F)c1)NCC1(C(F)(F)F)CC1 [Example 229, 1-[[2-(difluoromethoxy)pyridin-4-yl]methyl]-3-[[1-(trifluoromethyl)cyclopropyl]methyl]urea]",49,600
"O=C(NCc1ccnc(OC(F)F)c1)N[C@@H](C(F)F)C1CC(F)(F)C1 [Example 230, 1-[(1R)-1-(3,3-difluorocyclobutyl)-2,2-difluoroethyl]-3-[[2-(difluoromethoxy)pyridin-4-yl]methyl]urea]",55,1090
"CC(F)(F)c1cc(CNC(=O)Nc2cccc(Cl)c2)ccn1 [Example 231, 1-(3-chlorophenyl)-3-[[2-(1,1-difluoroethyl)pyridin-4-yl]methyl]urea]",51,800
"O=C(Nc1cccc(CF)c1)NC(CO)c1ccnc(OCC(F)(F)F)c1 (centres unmarked) [Example 232, 1-[3-(fluoromethyl)phenyl]-3-[2-hydroxy-1-[2-(2,2,2-trifluoroethoxy)pyridin-4-yl]ethyl]urea]",47,250
"Cc1cccc(NC(=O)NC(CO)c2ccnc(OCC(F)(F)F)c2)c1 (centres unmarked) [Example 233, 1-[2-hydroxy-1-[2-(2,2,2-trifluoroethoxy)pyridin-4-yl]ethyl]-3-(3-methylphenyl)urea]",68,130

# Now from value to compound:
Emax [%],EC50 [nM],SMILES
88,80,"O=C(NCc1ccnc(OCC(F)(F)F)c1)NC1CC(C2CC2)C1 (centres unmarked) [Example 235, 1-(3-cyclopropylcyclobutyl)-3-[[2-(2,2,2-trifluoroethoxy)pyridin-4-yl]methyl]urea]"
54,160,"O=C(NCc1ccnc(OC(F)F)c1)NCC1(C(F)(F)F)CCC1 [Example 237, 1-[[2-(difluoromethoxy)pyridin-4-yl]methyl]-3-[[1-(trifluoromethyl)cyclobutyl]methyl]urea]"
79,60,"O=C(NCc1ccnc(OCC(F)(F)F)c1)N[C@@H]1C[C@@H]2[C@H](C1)C2(F)F [Example 238, 1-[(1R,3s,5S)-6,6-difluoro-3-bicyclo[3.1.0]hexanyl]-3-[[2-(2,2,2-trifluoroethoxy)pyridin-4-yl]methyl]urea]"
57,440,"O=C(NCc1ccnc(OC(F)F)c1)N[C@H]1CC[C@H](F)C1 [Example 239, 1-[[2-(difluoromethoxy)pyridin-4-yl]methyl]-3-[(1S,3S)-3-fluorocyclopentyl]urea]"
55,300,"O=C(Nc1ccc(F)c(F)c1)NC(CO)c1ccnc(OC(F)F)c1 (centres unmarked) [Example 240, 1-[1-[2-(difluoromethoxy)pyridin-4-yl]-2-hydroxyethyl]-3-(3,4-difluorophenyl)urea]"
68,70,"O=C(NCc1ccnc(OC(F)F)c1)N[C@H](C1CCC1)C(F)(F)F [Example 241, 1-[(1R)-1-cyclobutyl-2,2,2-trifluoroethyl]-3-[[2-(difluoromethoxy)pyridin-4-yl]methyl]urea]"
51,750,"O=C(NCc1ccnc(OC(F)F)c1)N[C@@H](C1CCC1)C(F)(F)F [Example 242, 1-[(1S)-1-cyclobutyl-2,2,2-trifluoroethyl]-3-[[2-(difluoromethoxy)pyridin-4-yl]methyl]urea]"
42,760,"O=C(NCc1ccnc(OC(F)F)n1)N[C@H]1C[C@H](C(F)(F)F)C1 [Example 243, 1-[[2-(difluoromethoxy)pyrimidin-4-yl]methyl]-3-[(1r,3r)-3-(trifluoromethyl)cyclobutyl]urea]"
50,250,"O=C(NCc1ccnc(OC(F)F)c1)Nc1cc(F)ccc1F [Example 244, 1-[[2-(difluoromethoxy)pyridin-4-yl]methyl]-3-(2,5-difluorophenyl)urea]"
54,50,"O=C(NCc1ccnc(OCC(F)(F)F)c1)Nc1cc(F)ccc1F [Example 245, 1-(2,5-difluorophenyl)-3-[[2-(2,2,2-trifluoroethoxy)pyridin-4-yl]methyl]urea]"
60,540,"O=C(NCc1ccnc(OC(F)F)c1)NC1(C23CC(C2)C3)CC1 [Example 246, 1-[1-(1-bicyclo[1.1.1]pentanyl)cyclopropyl]-3-[[2-(difluoromethoxy)pyridin-4-yl]methyl]urea]"
53,90,"O=C(NCc1ccnc(OC(F)F)c1)Nc1cccc(F)c1F [Example 247, 1-[[2-(difluoromethoxy)pyridin-4-yl]methyl]-3-(2,3-difluorophenyl)urea]"
62,140,"O=C(NCc1ccnc(OCC(F)(F)F)c1)Nc1cccc(F)c1F [Example 248, 1-(2,3-difluorophenyl)-3-[[2-(2,2,2-trifluoroethoxy)pyridin-4-yl]methyl]urea]"
43,260,"O=C(NCc1ccnc(OCF)c1)Nc1ccc(F)c(F)c1 [Example 249, 1-(3,4-difluorophenyl)-3-[[2-(fluoromethoxy)pyridin-4-yl]methyl]urea]"
75,120,"O=C(NCc1ccnc(OC(F)F)c1)N[C@@H]1CCC[C@H](C(F)(F)F)C1 [Example 250, 1-[[2-(difluoromethoxy)pyridin-4-yl]methyl]-3-[(1R,3S)-3-(trifluoromethyl)cyclohexyl]urea]"
60,130,"[2H]C([2H])(NC(=O)NC12CCC(F)(CC1)CC2)c1ccnc(OC(F)F)c1 [Example 251, 1-[dideuterio-[2-(difluoromethoxy)pyridin-4-yl]methyl]-3-(4-fluoro-1-bicyclo[2.2.2]octanyl)urea]"
73,720,"O=C(NCc1ccnc(OC(F)F)c1)NCC(C(F)(F)F)C(F)(F)F [Example 252, 1-[[2-(difluoromethoxy)pyridin-4-yl]methyl]-3-[3,3,3-trifluoro-2-(trifluoromethyl)propyl]urea]"
70,320,"O=C(NCc1ccnc(OC(F)F)c1)NC(C1CC1)C1CC1 [Example 253, 1-(dicyclo-propylmethyl)-3-[[2-(difluoromethoxy)pyridin-4-yl]methyl]urea]"
40,1010,"O=C(NCc1ccnc(OCC(F)(F)F)c1)NC1(C2CC(F)(F)C2)CC1 [Example 254, 1-[1-(3,3-difluorocyclobutyl)cyclopropyl]-3-[[2-(2,2,2-trifluoroethoxy)pyridin-4-yl]methyl]urea]"
84,30,"O=C(Nc1cc(F)cc(F)c1)NC(CO)c1ccnc(OCC(F)(F)F)c1 (centres unmarked) [Example 256, 1-(3,5-difluorophenyl)-3-[2-hydroxy-1-[2-(2,2,2-trifluoroethoxy)pyridin-4-yl]ethyl]urea]"
61,240,"O=C(NCc1ccnc(OCC(F)(F)F)c1)N[C@H](C1CC1)C(F)(F)F [Example 257, 1-[(1R)-1-cyclopropyl-2,2,2-trifluoroethyl]-3-[[2-(2,2,2-trifluoroethoxy)pyridin-4-yl]methyl]urea]"
